Holding throughout (type): biochemical
Assay [1] addresses T1, E. coli Undecaprenyldiphosphatsynthase (EcUPPS) (Escherichia coli, UniProt P60472).
T1 construct: made in house; host or cells: E. coli
T1 sequence (P60472 1-253): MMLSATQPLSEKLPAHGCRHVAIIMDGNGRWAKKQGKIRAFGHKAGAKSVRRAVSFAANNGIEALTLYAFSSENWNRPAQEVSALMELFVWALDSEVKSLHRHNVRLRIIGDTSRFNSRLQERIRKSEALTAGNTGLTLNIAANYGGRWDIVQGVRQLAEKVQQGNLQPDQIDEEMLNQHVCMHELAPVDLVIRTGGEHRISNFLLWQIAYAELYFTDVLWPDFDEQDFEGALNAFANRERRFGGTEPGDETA
The assay can be described thus: MTP phosphate detection assay (diphosphate release, BIOMOL Green), substrate kinetics. To be noted: elongation substrate varied, starter FPP 10 µM. As for the experimental part: (§1) Cis-Prenyltransferasen entlassen während der Reaktion Diphosphat nach jedem Kondensationsschritt. Dies ist der Ansatzpunkt, der gewählt wurde, um unabhängig von der Art des Produktes den Grundumsatz zu detektieren. […] Die Dreifachbestimmungen der Enzymreaktionen wurden mit 100 µL BIOMOL Green™ Detektionsreagenz gestoppt und nach weiteren 20 min in einem Mikrotiterplattenspektrophotometer bei 620 nm gemessen. Zur Kontrolle erfolgte für jede Substratkonzentration eine Messung mit denaturiertem Enzym zu den unterschiedlichen Zeitpunkten um Selbsthydrolyse der Substrate zu berücksichtigen. Zur Quantifizierung wurde eine Pi-Standardkurve in Doppelbestimmung mitgeführt. Die Verdünnung des KPi-Standards erfolgte in Assaypuffer, wurde mit 100 µL BIOMOL Green™ Detektionsreagenz nach Ablauf der Enzymreaktion in den Test-Wells detektiert und zeitgleich nach weiteren 20 min bei 620 nm gemessen. Eine lineare Beziehung zwischen A620 nm und Pi-Konzentration ermöglichte eine Quantifizierung zwischen 80 µM-0 µM Pi.
(§2) Die Bestimmung der FPP-Kinetiken der EcUPPS sowie der ThkCPT erfolgte unter analogen Bedingungen der Bestimmung von IPP. […] Die Enzymreaktion wurde nach 60 s, 120 s, 180 s, 300 s, 600 s, 900 s oder 1200 s durch Zugabe von 100 µL BIOMOL Green™ Detektionsreagenz gestoppt und wie oben beschrieben gemessen.
(§3) Die Assaybedingungen wurden wie in Beispiel 3 beschriebenen gewählt. […] Variation von 500 - 0 µM im Fall der Elongationssubstrate erfolgte konstant mit 10 µM FPP (jedes Homoallyldiphosphat möglich).
(§4) Zur Berechnung der Umsatzraten in nkat·mg^-1 wurde verwendet: ν0 = ((A620-ABlank)⋅1000)/(2⋅m⋅t⋅[E]) [formula] v0 Anfangsgeschwindigkeit der Diphosphathydrolyse (nkat·mg^-1) A620 Absorption bei 620 nm ABlank Absorption der Kontrolle bei 620 nm m Anstieg der Phosphatstandardkurve (µM^-1) t Dauer der Enzymreaktion (s) [E] Enzymkonzentration (mg·L^-1)
(§5) Die Auswertung erfolgte durch nicht-lineare Regression nach der Hill-Gleichung mit Sigma-Plot 11. […] Substratkonzentration (µM) h Hill-Koeffizient

The target of assay [2] is T2, Thermococcus kodakaraensis cis-Prenyltransferase (ThkCPT) (Thermococcus kodakarensis, UniProt Q5JGE1).
T2 construct: made in house; host or cells: E. coli
T2 sequence (Q5JGE1 1-264): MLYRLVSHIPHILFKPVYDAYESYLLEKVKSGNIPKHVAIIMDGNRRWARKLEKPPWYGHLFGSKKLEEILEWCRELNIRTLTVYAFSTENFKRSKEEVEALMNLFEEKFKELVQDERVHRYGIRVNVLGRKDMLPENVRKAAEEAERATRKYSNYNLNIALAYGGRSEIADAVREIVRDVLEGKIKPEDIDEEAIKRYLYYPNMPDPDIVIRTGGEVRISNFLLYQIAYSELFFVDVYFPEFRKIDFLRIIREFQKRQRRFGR
The description is as above. To be noted: elongation substrate varied, starter FPP 10 µM, room temperature. Here is the method: as §1, §2, §3, §4, §5

Another assay deals with T3, EcUPPS (Escherichia coli, UniProt P60472).
T3 construct: made in house; host or cells: E. coli
The assay can be described thus: Product chain length by HPLC with fluorescent starter substrate 110. As to conditions: 10 µM EcUPPS, 110 as starter substrate, HPLC of hydrolysed products. As for the experimental part:
Zur Bestimmung der Produktkettenlängen wurden 500 µL Enzymassays in MS-Gläschen durchgeführt. […] Die Extraktion der Polyprenyldiphosphate erfolgte mit 500 µL 1-Butanol. Die Butanolphase wurde in ein neues Glas überführt und unter Stickstoffstrom von dem Lösungsmittel befreit. Die Hydrolyse der Diphosphate zum Polyprenol erfolgte durch Zugabe von 200 µL Hydrolysepuffer (20% Isopropanol, 4,4 Units/mL saure Phophatase aus Kartoffeln, 0,1 % Triton X-100, 50 mM Natriumacetat (pH 4,7)) und wurde über Nacht bei 37 °C inkubiert. Die Polyprenole wurden mit 500 µL nHexan extrahiert und zur weiteren DC- oder HPLC-Analyse vorbereitet. Für DC-Experimente und LC/ESI-MS-Analysen wurde die nHexan-Phase in ein neues Glas überführt, das Lösungsmittel abgedampft und die Produkte erneut in 100 µL nHexan resuspendiert um eine Aufkonzentrierung zu erreichen. Für HPLC-Analysen mit 110 ((2E,6E)-8-O-(N-methyl-2-aminobenzoyl)-3,7-dimethyl-2,6-octandien-1-diphosphat) als Startersubstrat wurde die nHexan-Phase 1:3 verdünnt in das HPLC-System mittels Autosampler injiziert.
Die HPLC-Analyse der Polyprenole erfolgte an einer Anlage von Merck HITACHI D-7000, wobei als stationäre Phase eine YMC-ODS AQ (150 x 4 mm, 5 µm; YMC Europe GmbH, Dinslaken) Säule verwendet wurde. Die Elution erfolgte mit 1 mL·min^-1 und die Detektion bei 210 nm mit einem UV-VIS Detektor: Merck HITACHI L-7420. […]

The source of these data is EP2848693A1, “Concatenation of halogenated alkenyl diphosphate derivatives” (LANXESS Deutschland GmbH, priority 2013, dated 2015).

The structures appear in SMILES notation.

As to `C=C(Cl)CCOP(=O)(O)OP(=O)(O)O` [Cl-BPP, 3-Chlor-3-Butenyldiphosphat], the kcat was 0,0009 s^-1 in assay [1] and 0,0005 s^-1 in assay [2]. For the same molecule, on EcUPPS, the “Kondensationsschritte / Elongationseinheiten” value was 2.
